Broadly, the mortality is the share of the test organisms that died.

The results in this text go back to patent US9212164B2, “Pesticidal compositions and processes related thereto” (Dow AgroSciences LLC, priority 2012, dated 2015).

The subject of assay [1] is Beet Armyworm (BAW) (Spodoptera exigua). The assay is described as follows: Bioassays on BAW, 128-well diet tray assay. Type of assay: in vivo. The following applies: for mortality at 50 µg/cm2: Spodoptera exigua, 168 h, 50 μg/cm^2 on artificial diet, second instar larvae, five to seven days, 25° C., read-out: BAW Rating (percent mortality); for BAW Rating: Beet Armyworm, 128-well diet tray assay, rating C = Not Tested (omitted), D = no activity noticed. How it is done: (§1) Certain molecules disclosed in this document were tested against BAW, CEW and CL using procedures described in the following examples. In the reporting of the results, the “BAW & CEW & CL Rating Table” was used (See Table Section).
Bioassays on BAW (Spodoptera exigua)
Bioassays on BAW were conducted using a 128-well diet tray assay. One to five second instar BAW larvae were placed in each well (3 mL) of the diet tray that had been previously filled with 1 mL of artificial diet to which 50 μg/cm^2 of the test compound (dissolved in 50 μL of 90:10 acetone-water mixture) had been applied (to each of eight wells) and then allowed to dry. Trays were covered with a clear self-adhesive cover, and held at 25° C., 14:10 light-dark for five to seven days. Percent mortality was recorded for the larvae in each well; activity in the eight wells was then averaged. The results are indicated in the tables entitled “Table 3: Assay Results Part 1” and “Table 4: Assay Results Part 2” (See Table Section).

In assay [2] the test system is Cabbage Looper (CL) (Trichoplusia ni). Briefly: Bioassays on CL, 128-well diet tray assay. It is filed as in vivo. The following applies: 168 h, 50 μg/cm^2 on artificial diet, second instar larvae, five to seven days, 25° C., read-out: CL Rating (percent mortality). As to the method:
as §1
Bioassays on CL (Trichoplusia ni)
Bioassays on CL were conducted using a 128-well diet tray assay. One to five second instar CL larvae were placed in each well (3 mL) of the diet tray that had been previously filled with 1 mL of artificial diet to which 50 μg/cm^2 of the test compound (dissolved in 50 μL of 90:10 acetone-water mixture) had been applied (to each of eight wells) and then allowed to dry. Trays were covered with a clear self-adhesive cover, and held at 25° C., 14:10 light-dark for five to seven days. Percent mortality was recorded for the larvae in each well; activity in the eight wells was then averaged. The results are indicated in the table entitled “Table 4: Assay Results Part 2” (See Table Section).

As to `O=C(NC1(C(=O)NCC(F)(F)F)CC1)c1ccc(/C=C/[C@H](c2cc(Cl)c(Cl)c(Cl)c2)C(F)(F)F)cc1C(F)(F)F` (single isomer, unassigned) [Compound F8A], the mortality at 50 µg/cm2 in assay [1] and in assay [2] was 50 to 100% in each case.

Regarding `O=C(NC1(C(=O)NCC(F)(F)F)CC1)c1ccc(/C=C/[C@@H](c2cc(Cl)c(Cl)c(Cl)c2)C(F)(F)F)cc1C(F)(F)F` (single isomer, unassigned) [Compound F8B], the mortality at 50 µg/cm2 in assay [1] and in assay [2] was 50 to 100% each time. Consider `N#CCN1CCC(NC(=O)c2ccc(/C=C/C(c3cc(Cl)c(Cl)c(Cl)c3)C(F)(F)F)cc2Br)CC1` (centres unmarked) [AC107], for which the “BAW Rating” value in assay [1] is recorded as “B (More than 0 - Less than 50)”. Same read-out and setting: under `O=C(NC1CCN(C2COC2)CC1)c1ccc(/C=C/C(c2cc(Cl)c(Cl)c(Cl)c2)C(F)(F)F)cc1Br` (centres unmarked) [AC108, (E)-2-Bromo-N-(1-(oxetan-3-yl)piperidin-4-yl)-4-(4,4,4-trifluoro-3-(3,4,5-trichlorophenyl)but-1-en-1-yl)benzamide] stands “B (More than 0 - Less than 50)”; under `O=C(NCCc1ccc(Cl)nc1)c1ccc(/C=C/C(c2cc(Cl)c(Cl)c(Cl)c2)C(F)(F)F)cc1Br` (centres unmarked) [AC113], “B (More than 0 - Less than 50)”. On to `CCNC(=O)NCc1ccc(/C=C/C(c2cc(Cl)cc(Cl)c2)C(F)(F)F)cc1Cl` (centres unmarked) [CC31, (E)-1-(2-Chloro-4-(3-(3,5-dichlorophenyl)-4,4,4-trifluorobut-1-en-1-yl)benzyl)-3-ethylurea], for which, in assay [1], the “BAW Rating” value was “B (More than 0 - Less than 50)”. Regarding `O=C(NC1(C(=O)NCC(F)(F)F)CC1)c1ccc(/C=C/C(c2cc(Cl)c(Cl)c(Cl)c2)C(F)(F)F)cc1Cl` (centres unmarked) [Compound F1, (E)-2-Chloro-4-(4,4,4-trifluoro-3-(3,4,5-trichlorophenyl)but-1-enyl)-N-(1-(2,2,2-trifluoroethylcarbamoyl)cyclopropyl)benzamide], the mortality at 50 µg/cm2 in assay [1] and in assay [2] was 50 to 100% in each case. For `Cc1cc(/C=C/C(c2cc(Cl)c(Cl)c(Cl)c2)C(F)(F)F)ccc1C(=O)NC1(C(=O)NCC(F)(F)F)CC1` (centres unmarked) [Compound F2], the mortality at 50 µg/cm2 in assay [1] and in assay [2] was 50 to 100% each time. For `O=C(NC1(C(=O)NCC(F)(F)F)CC1)c1ccc(/C=C/C(c2cc(Cl)c(Cl)c(Cl)c2)C(F)(F)F)cc1Br` (centres unmarked) [Compound F3], the mortality at 50 µg/cm2 in assay [1] and in assay [2] was 50 to 100% each time. With `O=C(NC1(C(=O)NCC(F)(F)F)CCC1)c1ccc(/C=C/C(c2cc(Cl)c(Cl)c(Cl)c2)C(F)(F)F)cc1Cl` (centres unmarked) [Compound F4], the mortality at 50 µg/cm2 in assay [1] and in assay [2] was 50 to 100% each time. As for `O=C(NC1(C(=S)NCC(F)(F)F)CC1)c1ccc(/C=C/C(c2cc(Cl)c(Cl)c(Cl)c2)C(F)(F)F)cc1C(F)(F)F` (centres unmarked) [Compound F6, (E)-4-(4,4,4-Trifluoro-3-(3,4,5-trichlorophenyl)but-1-enyl)-N-(1-(2,2,2-trifluoroethylcarbamothioyl)cyclopropyl)-2-(trifluoromethyl)benzamide], the mortality at 50 µg/cm2 in assay [1] and in assay [2] was 50 to 100% each time. Consider `N#CC1(NC(=O)c2ccc(/C=C/C(c3cc(Cl)c(Cl)c(Cl)c3)C(F)(F)F)cc2Br)CC1` (centres unmarked) [Compound F7, (E)-2-Bromo-N-(1-cyanocyclopropyl)-4-(4,4,4-trifluoro-3-(3,4,5-trichlorophenyl)but-1-en-1-yl)benzamide], for which the mortality at 50 µg/cm2 in assay [1] and in assay [2] was 50 to 100% throughout. `O=C(NC1(C(=O)NCC(F)(F)F)CC1)c1ccc(/C=C/C(c2cc(Cl)c(Cl)c(Cl)c2)C(F)(F)F)cc1C(F)(F)F` (centres unmarked) [Compound F8]: the mortality at 50 µg/cm2 in assay [1] and in assay [2] was 50 to 100% in each case. Take `O=C(NC1CC1(F)F)c1ccc(/C=C/C(c2cc(Cl)c(Cl)c(Cl)c2)C(F)(F)F)cc1Br` (centres unmarked) [Compound P31]: the mortality at 50 µg/cm2 in assay [1] and in assay [2] was 50 to 100% in each case. As for `O=C(NC1(C(=O)NCC(F)(F)F)CC1)c1ccc(/C=C/C(c2ccc(F)c(F)c2F)C(F)(F)F)cc1C(F)(F)F` (centres unmarked) [Compound P65], the mortality at 50 µg/cm2 in assay [1] and in assay [2] was 50 to 100% throughout. Turning to `O=C(NC1(C(=O)NCC(F)(F)F)CC1)c1ccc(/C=C/C(c2cc(Cl)c(Cl)cc2Cl)C(F)(F)F)cc1Br` (centres unmarked) [Compound P108], the mortality at 50 µg/cm2 in assay [1] and in assay [2] was 50 to 100% in each case.

As for `O=C(NC1(C(=O)NCC(F)(F)F)CC1)c1ccc(/C=C/C(c2cc(Cl)c(Cl)cc2Cl)C(F)(F)F)cc1C(F)(F)F` (centres unmarked) [Compound P110], the mortality at 50 µg/cm2 in assay [1] and in assay [2] was 50 to 100% each time.

In the case of `O=C(NC1(C(=O)NCC(F)(F)F)CC1)c1ccc(/C=C/C(c2cccc(OC(F)(F)F)c2)C(F)(F)F)cc1Br` (centres unmarked) [Compound P153], the mortality at 50 µg/cm2 in assay [1] and in assay [2] was 50 to 100% each time. Turning to `O=C(NC1(C(=O)NCC(F)(F)F)CC1)c1ccc(/C=C/C(c2cccc(OC(F)(F)F)c2)C(F)(F)F)cc1C(F)(F)F` (centres unmarked) [Compound P155], the mortality at 50 µg/cm2 in assay [1] and in assay [2] was 50 to 100% each time. With `O=C(NC1(C(=O)NCC(F)(F)F)CC1)c1ccc(/C=C/C(c2cc(F)cc(Br)c2)C(F)(F)F)cc1Br` (centres unmarked) [Compound P198], the mortality at 50 µg/cm2 in assay [1] and in assay [2] was 50 to 100% each time. As for `O=C(NC1(C(=O)NCC(F)(F)F)CC1)c1ccc(/C=C/C(c2cc(F)cc(Br)c2)C(F)(F)F)cc1C(F)(F)F` (centres unmarked) [Compound P200], the mortality at 50 µg/cm2 in assay [1] and in assay [2] was 50 to 100% in each case. On to `Cc1cc(C(/C=C/c2ccc(C(=O)NC3(C(=O)NCC(F)(F)F)CC3)c(Br)c2)C(F)(F)F)ccc1Cl` (centres unmarked) [Compound P243], for which the mortality at 50 µg/cm2 in assay [1] and in assay [2] was 50 to 100% in each case. As to `Cc1cc(C(/C=C/c2ccc(C(=O)NC3(C(=O)NCC(F)(F)F)CC3)c(C(F)(F)F)c2)C(F)(F)F)ccc1Cl` (centres unmarked) [Compound P245], the mortality at 50 µg/cm2 in assay [1] and in assay [2] was 50 to 100% throughout. With `Cc1cc(C(/C=C/c2ccc(C(=O)NC3(C(=O)NCC(F)(F)F)CC3)c(Br)c2)C(F)(F)F)cc(C)c1F` (centres unmarked) [Compound P333], the mortality at 50 µg/cm2 in assay [1] and in assay [2] was 50 to 100% in each case. As for `Cc1cc(C(/C=C/c2ccc(C(=O)NC3(C(=O)NCC(F)(F)F)CC3)c(C(F)(F)F)c2)C(F)(F)F)cc(C)c1F` (centres unmarked) [Compound P335], the mortality at 50 µg/cm2 in assay [1] and in assay [2] was 50 to 100% each time. Turning to `Cc1cc(C(/C=C/c2ccc(C(=O)NC3(C(=O)NCC(F)(F)F)CC3)c(C(F)(F)F)c2)C(F)(F)F)ccc1F` (centres unmarked) [Compound P336], the mortality at 50 µg/cm2 in assay [1] and in assay [2] was 50 to 100% each time. Regarding `O=C(NC1(C(=O)NCC(F)(F)F)CC1)c1ccc(/C=C/C(c2cc(Cl)cc(Br)c2)C(F)(F)F)cc1Br` (centres unmarked) [Compound P378], the mortality at 50 µg/cm2 in assay [1] and in assay [2] was 50 to 100% each time. Take `O=C(NC1(C(=O)NCC(F)(F)F)CC1)c1ccc(/C=C/C(c2cc(Cl)cc(Br)c2)C(F)(F)F)cc1C(F)(F)F` (centres unmarked) [Compound P380]: the mortality at 50 µg/cm2 in assay [1] and in assay [2] was 50 to 100% each time.

On to `O=C(NC1(C(=O)NCC(F)(F)F)CC1)c1ccc(/C=C/C(c2ccc(Br)c(Br)c2)C(F)(F)F)cc1Br` (centres unmarked) [Compound P423], for which the mortality at 50 µg/cm2 in assay [1] and in assay [2] was 50 to 100% throughout. `O=C(NC1(C(=O)NCC(F)(F)F)CC1)c1ccc(/C=C/C(c2ccc(Br)c(Br)c2)C(F)(F)F)cc1C(F)(F)F` (centres unmarked) [Compound P425]: the mortality at 50 µg/cm2 in assay [1] and in assay [2] was 50 to 100% in each case. Consider `O=C(NC1(C(=O)NCC(F)(F)F)CC1)c1ccc(/C=C/C(c2ccc(Cl)c([N+](=O)[O-])c2)C(F)(F)F)cc1Br` (centres unmarked) [Compound P468], for which the mortality at 50 µg/cm2 in assay [1] and in assay [2] was 50 to 100% each time. Consider `O=C(NC1(C(=O)NCC(F)(F)F)CC1)c1ccc(/C=C/C(c2ccc(Cl)c([N+](=O)[O-])c2)C(F)(F)F)cc1C(F)(F)F` (centres unmarked) [Compound P470], for which the mortality at 50 µg/cm2 in assay [1] and in assay [2] was 50 to 100% in each case. For the compound `N#Cc1cc(C(/C=C/c2ccc(C(=O)NC3(C(=O)NCC(F)(F)F)CC3)c(Br)c2)C(F)(F)F)ccc1F` (centres unmarked) [Compound P513], the mortality at 50 µg/cm2 in assay [1] and in assay [2] was 50 to 100% in each case. As for `N#Cc1cc(C(/C=C/c2ccc(C(=O)NC3(C(=O)NCC(F)(F)F)CC3)c(C(F)(F)F)c2)C(F)(F)F)ccc1F` (centres unmarked) [Compound P515], the mortality at 50 µg/cm2 in assay [1] and in assay [2] was 50 to 100% in each case.

In the case of `FC(F)(F)C(/C=C/c1ccc(-n2cncn2)cc1)c1ccccc1` (centres unmarked) [DC3], in assay [1], the “BAW Rating” value was “B (More than 0 - Less than 50)”.
